Test results as given in patent publication US6914075B2, “Cystine derivative and agent for suppressing activation of inflammatory factors” (Ajinomoto Co., Inc., priority 2001, dated 2005).

Test system: NF-κB
Assay: Test of the potency of NF-κB activation suppression (gel shift assay, UVB-irradiated human epidermal cells)
Format: cell-based
Details: added 18 h before UVB 50 mJ/cm^2, nuclear protein 4 to 5 hours later
Description: Test compounds shown in Table 1 were added individually to human epidermal cells at confluency in a culture plate. 18 hours later, the culture broth was exchanged with a phenol red-free culture medium. Using Dermalei M-DMR-80 (manufactured by Toshiba Medical Supplies, Co., Ltd.), the cells were irradiated with an ultraviolet ray (UVB: 50 mJ/cm^2). 4 to 5 hours later, the cells were recovered and the nuclear protein was extracted using a general method. By using a gel shift assay method, the activated NF-κB in the resulting nuclear protein was detected. Determination of NF-κB was conducted based on counting the radioactivity of labeled NF-κB using a bioimaging analyzer BAS2000 (manufactured by Fuji Film Co., Ltd.). The ratio of NF-κB activation suppression by the inventive compounds compared with a test compound was calculated by the following formula (1). Ratio (%) of NF-κB activation suppression=[1-(A1−A3)/(A2−A3)]×100 (1)
A1: radioactivity of NF-κB band with addition of test compound
A2: radioactivity of NF-κB band without addition of test compound
A3: radioactivity of NF-κB band without addition of test compound and without ultraviolet irradiation

Compound	Suppression ratio (%) of NF-κB activation (test compound 0.1 mM)	Suppression ratio (%) of NF-κB activation (test compound 0.5 mM)	Suppression ratio (%) of NF-κB activation (test compound 1.0 mM)	Suppression ratio (%) of NF-κB activation (test compound 10 mM)	Suppression ratio (%) of NF-κB activation (test compound 30 mM)
O=C(O)[C@H](CSSC[C@H](NCc1ccccc1O)C(=O)O)NCc1ccccc1O [N,N′-Bis(2-hydroxybenzyl)-L-cystine]	41%	86%	> 100%	–	–
CC(=O)N[C@@H](CSSC[C@H](NC(C)=O)C(=O)O)C(=O)O [N,N′-Diacetyl-L-cystine]	–	–	–	48%	67%
O=C(O)[C@H](CO)NCc1ccccc1O [N-(2-Hydroxybenzyl)-L-serine]	–	–	–	17%	34%
